Test results reported in patent US20240117385A1, “ENZYMES OF LUCIFERIN BIOSYNTHESIS AND USE THEREOF” (LIGHT BIO, INC., priority 2018, published 2024).

Legend:
[1] = test system: hispidin hydroxylase and luciferase fusion protein; experiment: Bioluminescence of HEK293T cells expressing hispidin hydroxylase and luciferase fusion protein; assay type: cell-based, Neonothopanus nambi; details: 24 hours after transfection, 1 million of cells in 0.5 ml PBS; hispidin 10 μg per 1 million of cells
Description: Humanized DNA sequences coding hispidin-hydroxylase and luciferase of Neonothopanus nambi, obtained according to Example 2, were operatively cross-linked to each other by flexible short peptide linker with amino acid sequence GGSGGSGGS (SEQ ID NOs:115). Nucleotide and amino acid sequences of the obtained fused protein are shown in SEQ ID NO 101 and 102. Nucleic acid coding fused protein was cloned into pEGFP-N1 vector (Clontech, USA) instead of EGFP gene under Cytomegaloviral promoter control. The obtained structure was transfected into HEK293T cells. Analogous vectors, comprising individual genes of hispidin hydroxylase and luciferase, were also co-transfected. Transfection was performed by transfection agent FuGENE HD (Promega, USA) according to the manufacturer's protocol. 24 hours after transfection 1 million of cells were resuspended in 0.5 ml of PBS, and luminescence without adding hispidin and with addition of hispidin (10 μg per 1 million of cells) was recorded by luminometer.

[2] = test system: Neonothopanus nambi luciferase; experiment: Bioluminescence reaction of biosynthetic 3-hydroxyhispidin; assay type: biochemical; details: 3-hydroxyhispidin purified from fermenter medium by HPLC
Description: Expression cassette, comprising nucleic acid coding Neonothopanus nambi hispidin hydroxylase (SEQ ID NOs 1, 2) under control of J23100 promoter, was obtained synthetically and cloned into bacterial expression vector comprising spectinomycin resistance gene. The obtained vector was transformed into E. coli cells expressing Neonothopanus nambi hispidin-synthase, Zeocin resistance gene and NpgA gene, obtained according to Example 12. The obtained bacteria were used for producing 3-hydroxyhispidin by fermentation according to the protocol described in Example 12, however with adding of spectinomycin at concentration of […] in all media used for cultivation. After 48 hours of cultivation the 3-hydroxyhispidin concentration in the medium was 2.3 g/l.

[3] = test system: hispidin-synthase of Neonothopanus nambi; experiment: Determination of hispidin synthase functionality; assay type: biochemical; details: 20 μM caffeic acid
Description: (§1) Polyhistidine (H is tag) coding sequence was operatively attach ed to 5′-ends of nucleic acids coding hispidin-synthase and caffeylpyruvate hydrolase of Neonothopanus nambi, obtained according to Example 9, and the obtained structures were cloned into pET-23 vector by means of restriction endonucleases NotI and SacI. The vectors were used for transformation of Escherichia coli cells of BL21-DE3-codon+ strain, performed by electroporation. The transformed cells were dispersed in Petri dishes with LB medium, comprising 1.5% of agar, 100 μg/ml of ampicillin, and incubated overnight at 37° C. […]
(§2) For determination of hispidin synthase functionality 30 μl of isolated recombinant protein solution were put into a glass tube, comprising 100 μl of the buffer (0.2 M of Na-phosphate buffer, 0.5 M of Na2SO4, 0.1% dodecylmaltoside (DDM) pH 8.0, all components—Sigma-Aldrich, USA), 0.5 μl of purified recombinant luciferase of Neonothopanus nambi, obtained according to Example 4, 1 mM of NADPH (Sigma-Aldrich, USA), 15 μl of purified recombinant hispidin hydroxylase of Neonothopanus nambi, obtained according to Example 4, 10 mM of ATP (ThermoFisher Scientific, USA), 1 mM of CoA (Sigma-Aldrich, USA), 1 mM of malonyl-CoA (Sigma-Aldrich, USA). […] Maximum emission of the emitted luminescence was 520-535 nm.

[4] = test system: Autonomously bioluminescent transgenic plants Nicotiana benthamiana; experiment: Effect of external adding caffeic acid on transgenic plant bioluminescence; assay type: in vivo; details: 0.4-6.4 g/l, two hours of incubation
Method: Autonomously bioluminescent transgenic plants Nicotiana benthamiana, obtained according to Example 16, were transferred to soil and cultured within eight weeks. Then, plant stem was cut and placed in water for two hours, after that, bioluminescence intensity was measured by IVIS Spectrum In Vivo Imaging System (Perkin Elmer). Then, plants were transferred to one of five water solutions at caffeic acid concentration of 0.4 g/l, 0.8 g/l, 1.6 g/l, 3.2 g/l, or 6.4 g/l, and control plants were placed in water. After two more hours of incubation in the caffeic acid solution or in water bioluminescence intensity was measured again.

[5] = test system: caffeylpyruvate hydrolase of Neonothopanus nambi; experiment: Determination of caffeylpyruvate hydrolase functionality; assay type: biochemical; details: 25 μM caffeoyl pyruvate
Description: as §1
For determination of caffeylpyruvate hydrolase functionality 10 μl of isolated recombinant protein solution were put into a glass tube, comprising 100 μl of the buffer (0.2 M of Na-phosphate buffer, 0.5 M of Na2SO4, 0.1% dodecylmaltoside (DDM) pH 8.0, 0.5 μl of luciferase of Neonothopanus nambi, 1 mM of NADPH (Sigma-Aldrich, USA), 15 μl of hispidin hydroxylase 10 mM of ATP (ThermoFisher Scientific, USA), 1 mM of CoA (Sigma-Aldrich, USA), 1 mM of malonyl-CoA (Sigma-Aldrich, USA), 30 μl of purified recombinant hispidin synthase. The glass tube was placed into a luminometer GloMax 20/20 (Promega, USA). […] Maximum emission of the emitted luminescence was 520-535 nm.

[6] = test system: PKS from Hydrangea macrophylla; experiment: Functionality of recombinant PKS; assay type: biochemical; details: 20 μM caffeyl-CoA
Method: as §2, with “Nucleic acid coding PKS from Hydrangea macrophylla (SEQ ID NOs: 124, 125) was used for producing recombinant protein according to the technique described in Example 4. Presence” for “For determination”, “the expected recombinant product was confirmed by electrophoresis as bands of the expected length were available. Aliquots of the isolated recombinant protein were used for verifying” for “hispidin synthase”, “functionality of:” for “functionality”, “USA). The glass tube was placed into a luminometer GloMax 20/20 (Promega, USA).” for “USA).”

Arabidopsis thaliana = experiment: Caffeylpyruvate hydrolase effect on luminescence of autonomously bioluminescent plants; assay type: in vivo; details: on average
Description: For the purpose of study of caffeylpyruvate hydrolase effect on luminescence of autonomously bioluminescent organisms there was used a binary vector for agrobacterium transformation comprising coding sequences of Neonothopanus nambi luciferase, Neonothopanus nambi hispidin hydroxylase, Neonothopanus nambi hispidin synthase, Neonothopanus nambi caffeylpyruvate hydrolase and kanamycin resistance gene, and each gene is under control of 35S promoter from cauliflower mosaic virus, obtained according to Example 16, and control vector characterized in that caffeylpyruvate hydrolase sequence was removed from it. The vectors were used for transformation of Arabidopsis thaliana in the same conditions according to the protocol described in Example 16. Bioluminescence was visualized by means of IVIS Spectrum In Vivo Imaging System (Perkin Elmer). […] The data provided indicate that expression of caffeylpyruvate hydrolase enables to increase bioluminescent cascade efficiency, that results in increasing the intensity of luminescence emitted by plants.

In the case of O=c1oc(/C=C/c2ccc(O)c(O)c2)cc(O)c1O [3-hydroxy hispidin, (E)-6-(3,4-dihydroxystyryl)-3,4-dihydroxy-2H-pyran-2-one], the “cell luminescence on addition” value [1] is reported as “caused bioluminescent signal” and the “activity in bioluminescence reaction” value [2] is reported as “active in bioluminescence reaction”.

For O=C(O)/C=C/c1ccc(O)c(O)c1 [caffeic acid], the “bioluminescence of reaction mixture” value [3] was “demonstrated bioluminescence” and the “change of bioluminescence intensity vs before placing in caffeic acid solution” value [4] was “increased”.

For O=C(/C=C/c1ccc(O)c(O)c1)/C=C(/O)C(=O)O [caffeoyl pyruvate, (2E,5E)-6-(3,4-dihydroxyphenyl)-2-hydroxy-4-oxohexa-2,5-diene acid], the “Bioluminescence of the reaction mixture” value [5] was “Bioluminescence of the reaction mixture was detected”.

For CC(C)(COP(=O)(O)OP(=O)(O)OC[C@H]1O[C@@H](n2cnc3c(N)ncnc32)[C@H](O)[C@@H]1OP(=O)(O)O)[C@@H](O)C(=O)NCCC(=O)NCCSC(=O)/C=C/c1ccc(O)c(O)c1 [caffeyl-CoA], the “bioluminescence of reaction mixtures” value [6] was “demonstrated bioluminescence”.

B1: Neonothopanus nambi caffeylpyruvate hydrolase: enzyme converting caffeylpyruvate to caffeic acid, expressed in transgenic plants (protein, listed as Neonothopanus nambi)
chain: MAPISSTWSRLIRFVAIETSLVHIGEPIDATMDVGLARREGKTIQAYEIIGSGSALDLSAQVSKNVLTVRELLMPLSREEIKTVRCLGLNYPVHATEANVAVPKFPNLFYKPVTSLIGPDGLITIPSVVQPPKEHQSDYEAELVIVIGKAAKNVSEDEALDYVLGYTAANDISFRKHQLAVSQWSFSKGFGSLLLTIRMAQTHSGNINRFSRDQIFNVKKTISFLSQGTTLEPGSIILTGTPDGVGFVRNPPLYLKDGDEVMTWIGSGIGTLANTVQEEKTCFASGGHE
B1 was tested, and the “brightness of bioluminescence vs plants expressing only luciferase, hispidin hydroxylase and hispidin synthase” value (Arabidopsis thaliana) was 8.3 times.
